Reference: patent US20080242878A1, “Semi-Synthetic Taxane Derivatives With Antitumor Activity” (priority 2005, published 2008)

How the values were obtained:
MCF7 = assay: Cytotoxicity, SRB test, 72 h exposure, MCF7; details: Homo sapiens, MCF7, 72 h, read-out: Cytotoxicity (IC50 (nM) 72 h exposure of cells to compound ± SE (SRB test) MCF7)
MCF7/R = assay: Cytotoxicity, SRB test, 72 h exposure, MCF7/R (resistant cells); details: for IC50: Homo sapiens, MCF7R, 72 h, read-out: Cytotoxicity (IC50 (nM) 72 h exposure of cells to compound ± SE (SRB test) MCF7/R); for RI (cross-resistance index): IC50 MCF7/R versus IC50 MCF7

| SMILES | IC50 (MCF7) [nM] | IC50 (MCF7/R) [nM] | RI (cross-resistance index) (MCF7/R) |
| --- | --- | --- | --- |
| COCC[C@H]1OC[C@@]1(OC(C)=O)C1/C(C)=C(/OC)C(=O)C2=C(C)[C@@H](OC(=O)[C@H](O)[C@H](CC(C)C)NC(=O)OC(C)(C)C)C[C@@](O)([C@H]1OC(=O)c1ccccc1)C2(C)C (stereo partly drawn) [Ex. 7, 13-(N-Boc-β-isobutylisoserinoyl)-7,9-of-O-methyl-C7,8-seco-10-deacetylbaccatin III] | 25.5 ± 2.6 | 168 ± 9.5 | 6.6 |
| CO/C1=C(\C)C([C@]2(OC(C)=O)CO[C@@H]2CCOCSC)[C@H](OC(=O)c2ccccc2)[C@]2(O)C[C@H](OC(=O)[C@H](O)[C@H](CC(C)C)NC(=O)OC(C)(C)C)C(C)=C(C1=O)C2(C)C (stereo partly drawn) [Ex. 2, 13-(N-Boc-β-isobutyl-isoserinoyl)-9-O-methyl-7-O-methylthiomethyl-C7,8-seco-10-deacetylbaccatin III] | 103 ± 13 | 558 ± 28 | 5.4 |
| CO/C1=C(\C)C([C@]2(OC(C)=O)CO[C@@H]2CCOC(C)=O)[C@H](OC(=O)c2ccccc2)[C@]2(O)C[C@H](OC(=O)[C@H](O)[C@H](CC(C)C)NC(=O)OC(C)(C)C)C(C)=C(C1=O)C2(C)C (stereo partly drawn) [Ex. 6, 13-(N-Boc-β-isobutylisoserinoyl)-9-O-methyl-7-O-acetyl-C7,8-seco-10-deacetylbaccatin III] | 66 ± 5.4 | 747 ± 45 | 11 |
| CO/C1=C(\C)C([C@]2(OC(C)=O)CO[C@@H]2CCO)[C@H](OC(=O)c2ccccc2)[C@]2(O)C[C@H](OC(=O)[C@H](O)[C@H](CC(C)C)NC(=O)OC(C)(C)C)C(C)=C(C1=O)C2(C)C (stereo partly drawn) [Ex. 3, 13-(N-Boc-β-isobutyl-isoserinoyl)-9-O-methyl-C7,8-seco-10-deacetylbaccatin III] | 38 ± 3.9 | 945 ± 40 | 25 |
| CSCOCC[C@H]1OC[C@@]1(OC(C)=O)C1/C(C)=C(/OCSC)C(=O)C2=C(C)[C@@H](OC(=O)[C@H](O)[C@H](CC(C)C)NC(=O)OC(C)(C)C)C[C@@](O)([C@H]1OC(=O)c1ccccc1)C2(C)C (stereo partly drawn) [Ex. 5, 13-(N-Boc-β-isobutylisoserinoyl)-7,9-O-bis(methylthiomethyl)-C7,8-seco-10-deacetylbaccatin III] | 58 ± 5.9 | 333 ± 23 | 5.7 |
| CC(=O)O[C@@]1(C2/C(C)=C(/O)C(=O)C3=C(C)[C@@H](OC(=O)[C@H](O)[C@H](CC(C)C)NC(=O)OC(C)(C)C)C[C@@](O)([C@H]2OC(=O)c2ccccc2)C3(C)C)CO[C@@H]1CCO (stereo partly drawn) [IDN 5390, reference compound] | 11.2 ± 0.81 | 1040 ± 93 | 93 |
| CSCOCC[C@H]1OC[C@@]1(OC(C)=O)C1/C(C)=C(/O)C(=O)C2=C(C)[C@@H](OC(=O)[C@H](O)[C@H](CC(C)C)NC(=O)OC(C)(C)C)C[C@@](O)([C@H]1OC(=O)c1ccccc1)C2(C)C (stereo partly drawn) [Ex. 4, 13-(N-Boc-β-isobutylisoserinoyl)-7-O-methylthiomethyl-C7,8-seco-10-deacetylbaccatin III] | 26 ± 2.1 | 501 ± 41 | 19 |
